Type in all cases: functional, cell-based
Assay [1] concerns P388. Put plainly: Cytotoxicity against mouse P388 cells.
Assay [2] concerns A549. Put plainly: Cytotoxicity against human A549 cells.
The subject of assay [3] is HT-29. Put plainly: Cytotoxicity against human HT29 cells.
A short description of assay [4]: Cytotoxicity against mouse SCHABEL cells.
Assay [5] has as its system SK-MEL-28. Put plainly: Cytotoxicity against human SK-MEL-28 cells.

≈ marks a conversion by molar mass, not a printed value.

Consider `C=C1C(=O)O[C@@H]2/C=C(\CO)CC/C=C(\C)C[C@H](OC(=O)C(=C)[C@H](O)CO)[C@@H]12` [CNICIN], for which the IC50 (in general, the point on the concentration scale where inhibition reaches its midpoint) was found to be 6.6 µM in assay [1], 13.2 µM in assay [2] and 13.2 µM in assay [3].

Consider `C=C1C(=O)O[C@H]2[C@H]1[C@@H](OC(=O)C(=C)[C@@H](O)CO)C[C@]1(C)[C@@H]2[C@@H](C=O)CC[C@H]1O` [MALACITANOLIDE], for which the IC50 amounted to 0.12 mg/L in assay [1]; 0.12 mg/L in assay [2]; 0.12 mg/L (≈ 0.304 µM) in assay [4]; 0.12 mg/L (≈ 0.304 µM) in assay [5]; 0.12 mg/L in assay [3].

For `C=C1C(=O)O[C@@H]2/C=C(\CO)CC/C=C(\C)C[C@H](OC(=O)/C(C)=C\COC(C)=O)[C@@H]12`, the IC50 in assay [1] amounted to 2.5 mg/L; in assay [2] it was 5 mg/L; in assay [4], 2.5 mg/L (≈ 6.18 µM); in assay [5], 5 mg/L (≈ 12.4 µM); in assay [3], 5 mg/L.

Values taken from ChEMBL document CHEMBL1158323, “Biomimetic cyclization of cnicin to malacitanolide, a cytotoxic eudesmanolide from Centaurea malacitana” (J Nat Prod, 1997).
